Experimental data as given in patent US11091428B2 (HAPLOGEN GMBH, priority 2016, dated 2021).
pEC50, pIC50: −log10 of the molar value. Read-outs that look alike come from different tables or passages of the source.

Assays:
[1] = target: T1, PLA2G16 (Homo sapiens, UniProt P53816); test: Enzyme activity assay for PLA2G16 (Red/Green BODIPY PC-A2 fluorescence); format: biochemical; conditions: His-tagged PLA2G16, 4 min pre-incubation, 2 nM to 50 μM; read-out: IC50 values of the compounds determined in the enzyme activity assay for PLA2G16
T1 construct: Hexa-His (N); made in house; host or cells: E. coli BL21(DE3)
T1 sequence (P53816 1-162): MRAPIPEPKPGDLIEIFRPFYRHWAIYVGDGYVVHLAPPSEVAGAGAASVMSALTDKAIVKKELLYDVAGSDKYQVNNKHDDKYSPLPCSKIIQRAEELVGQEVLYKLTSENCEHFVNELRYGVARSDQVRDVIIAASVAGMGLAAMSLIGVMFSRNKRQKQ
How it was run: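 N-His-tagged human PLA2G16 from E. coli, Ni-NTA purified. Pre-incubated 4 min with compound (2 nM–50 μM final) in pH 8.5 Tris/NaCl buffer with 5 mM glutathione, then BODIPY PC-A2 in DOPC/DOPG/cholesterol vesicles added. Fluorescence (ex 480/em 530 nm) increase over 10 min taken as activity; IC50 by non-linear regression.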

[2] = test system: picornaviruses (CVB1, HRV-A2, HRV-A23, EV-68); test: Anti-picornavirus cytopathic effect (CPE) reduction assay on HeLa H1 cells; format: cell-based; conditions: HeLa H1 cells, 48 h, category from averaging the EC50 values from four picornaviruses (CVB1, HRV-A2, HRV-A23, EV68), read-out: EC50 values of the compounds determined in the anti-picornavirus assay
How it was run: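 HeLa H1 cells pre-treated 2 h with serially diluted compound in DMEM/2% FBS, then infected at an MOI giving full CPE in 2 days. After 48 h at 37° C, viability read by CellTiterBlue fluorescence (ex 560/em 590 nm), normalised to infected and uninfected vehicle controls; EC50 by non-linear regression, category from mean of four viruses.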

## CCC(NC(=O)c1cccnc1)C(=O)C(=O)NCC1CCCCC1 (stereo not shown) [FP 210, N-(Cyclohexylmethyl)-2-oxo-3-[(pyridin-3-yl)formamido]pentanamide]
[1]
  pIC50: > 6.00
[2]; Enterovirus B, HeLa H1, 48 h
  pEC50: 5.00 to 6.00

## CC(C(=O)C(=O)NCC1CCCC1)N(C=O)Cc1ccccc1 (stereo not shown) [FP 200, 3-(N-Benzylformamido)-N-(cyclopentylmethyl)-2-oxobutanamide]
[1]
  pIC50: > 6.00
[2]; Enterovirus B, HeLa H1, 48 h
  pEC50: > 6.00

## CC(C(=O)C(=O)NCC1CC1)N(C=O)CC(C)(C)C (stereo not shown) [FP 41, N-(Cyclopropylmethyl)-3-[N-(2,2-dimethylpropyl)formamido]-2-oxobutanamide]
[1]
  pIC50: > 6.00
[2]; Enterovirus B, HeLa H1, 48 h
  pEC50: 5.00 to 6.00

## CC(C(=O)C(=O)NC(C)(C)c1cccc(Cl)c1)N(C=O)C1CCCCC1 (stereo not shown) [FP 27, N[2-(3-Chlorophenyl)propan-2-yl]-3-(N-cyclohexylformamido)-2-oxobutanamide]
[1]
  pIC50: > 6.00
[2]; Enterovirus B, HeLa H1, 48 h
  pEC50: > 6.00

## CC(C)C(C(=O)C(=O)NCC1CC1)N(C=O)CC(C)(C)C (stereo not shown) [FP 31, N-(Cyclopropylmethyl)-3-[N-(2,2-dimethylpropyl)formamido]-4-methyl-2-oxopentanamide]
[1]
  pIC50: > 6.00
[2]; Enterovirus B, HeLa H1, 48 h
  pEC50: 5.00 to 6.00

## CNC(=O)C(=O)C(CC(C)C)N(C=O)Cc1ccccc1 (stereo not shown) [FP 195, 3-(N-Benzylformamido)-N,5-dimethyl-2-oxohexanamide]
[1]
  pIC50: > 6.00
[2]; Enterovirus B, HeLa H1, 48 h
  pEC50: 5.00 to 6.00

## Cc1csc(CN2C(=O)CCC2C(=O)C(=O)NCC2CCCC2)n1 (stereo not shown)
[1]
  pIC50: > 6.00
[2]; Enterovirus B, CVB1|EV68|HRVA2|HRVA23, HeLa H1, 48 h
  pEC50: > 6.00

## COc1ccccc1N(C=O)C(C(=O)C(=O)NCc1cccc(Cl)c1)C(C)C (stereo not shown) [FP 35, N-[(3-Chlorophenyl)methyl]-3-[N-(2-methoxyphenyl)formamido]-4-methyl-2-oxopentanamide]
[1]
  pIC50: > 6.00
[2]; Enterovirus B, HeLa H1, 48 h
  pEC50: 5.00 to 6.00

## CC(OC1CCCCC1)C(=O)C(=O)NCC1CCCC1 (stereo not shown) [FP 127, 3-(Cyclohexyloxy)-N-(cyclopentylmethyl)-2-oxobutanamide]
[1]
  pIC50: > 6.00
[2]; Enterovirus B, HeLa H1, 48 h
  pEC50: > 6.00

## CC(NC(=O)c1ccncc1)C(=O)C(=O)NCC1CCCCC1 (stereo not shown) [FP 205, N-(Cyclohexylmethyl)-2-oxo-3-[(pyridin-4-yl)formamido]butanamide]
[1]
  pIC50: > 6.00
[2]; Enterovirus B, HeLa H1, 48 h
  pEC50: 5.00 to 6.00

## C[C@@H]1CC(=O)N(Cc2ccccc2)[C@@H]1C(=O)C(=O)NC1CC1 (single isomer, unassigned) [FP 338]
[1]
  pIC50: > 6.00
[2]
  pEC50: 5.00 to 6.00

## O=C(NCC1CCCCC1)C(=O)C1CCC(=O)N1CC1CCOCC1 (stereo not shown) [FP 248, N-(Cyclohexylmethyl)-2-{1-[(oxan-4-yl)methyl]-5-oxopyrrolidin-2-yl}-2-oxoacetamide]
[1]
  pIC50: > 6.00
[2]; Enterovirus B, HeLa H1, 48 h
  pEC50: > 6.00

## Cc1nc(C)n(CCCNC(=O)C(=O)C2CCC(=O)N2Cc2ccccc2)n1 (stereo not shown) [FP 231, 2-(1-Benzyl-5-oxopyrrolidin-2-yl)-N-[3-(3,5-dimethyl-1H-1,2,4-triazol-1-yl)propyl]-2-oxoacetamide]
[1]
  pIC50: > 6.00
[2]; Enterovirus B, HeLa H1, 48 h
  pEC50: < 5.00

## O=CN(CC1CCOCC1)C(C(=O)C(=O)NCC1CC1)C1CC1 (stereo not shown) [FP 66, 3-Cyclopropyl-N-(cyclopropylmethyl)-3-{N-[(oxan-4-yl)methyl]formamido}-2-oxopropanamide]
[1]
  pIC50: > 6.00
[2]; Enterovirus B, HeLa H1, 48 h
  pEC50: 5.00 to 6.00

## CC(OCC1CCOCC1)C(=O)C(=O)NCC1CCC1 (stereo not shown) [FP 131, N-(Cyclobutylmethyl)-3-[(oxan-4-yl)methoxy]-2-oxobutanamide]
[1]
  pIC50: > 6.00
[2]; Enterovirus B, HeLa H1, 48 h
  pEC50: > 6.00

## CCC1CC(=O)N(Cc2ccccc2)C1C(=O)C(=O)NC1CC1 (stereo not shown) [FP 343, 2-(1-Benzyl-3-ethyl-5-oxopyrrolidin-2-yl)-N-cyclopropyl-2-oxoacetamide]
[1]
  pIC50: > 6.00
[2]; Enterovirus B, HeLa H1, 48 h
  pEC50: > 6.00

## CC(C(=O)C(=O)NCC1CCCCC1)N(C)C(=O)C1CC1 (stereo not shown) [FP 146, N-(Cyclohexylmethyl)-3-(1-cyclopropyl-N-methylformamido)-2-oxobutanamide]
[1]
  pIC50: > 6.00
[2]; Enterovirus B, HeLa H1, 48 h
  pEC50: 5.00 to 6.00

## C[C@H]1CC(=O)N(Cc2ccccc2)[C@@H]1C(=O)C(=O)NCC1CC1 (single isomer, unassigned) [FP 334]
[1]
  pIC50: > 6.00
[2]; Enterovirus B, HeLa H1, 48 h
  pEC50: 5.00 to 6.00

## COc1ccccc1OC(C)C(=O)C(=O)NCc1cccc(Cl)c1 (stereo not shown) [FP 133, N-[(3-Chlorophenyl)methyl]-3-(2-methoxyphenoxy)-2-oxobutanamide]
[1]
  pIC50: > 6.00
[2]; Enterovirus B, HeLa H1, 48 h
  pEC50: 5.00 to 6.00

## CC(C(=O)C(=O)NCC1CCCCC1)N(C)C(=O)c1ccccc1 (stereo not shown) [FP 176, N-(Cyclohexylmethyl)-3-(N-methyl-1-phenylformamido)-2-oxobutanamide]
[1]
  pIC50: > 6.00
[2]; Enterovirus B, HeLa H1, 48 h
  pEC50: > 6.00

## CNC(=O)C(=O)C(CC1CCC1)N(C=O)Cc1ccccc1 (stereo not shown) [FP 196, 3-(N-Benzylformamido)-4-cyclobutyl-N-methyl-2-oxobutanamide]
[1]
  pIC50: > 6.00
[2]; Enterovirus B, HeLa H1, 48 h
  pEC50: 5.00 to 6.00

## O=C(NCC1CC1)C(=O)C1CCC(=O)N1CCc1ccccc1 (stereo not shown) [FP 253, N-(Cyclopropylmethyl)-2-oxo-2-[5-oxo-1-(2-phenylethyl)pyrrolidin-2-yl]]
[1]
  pIC50: > 6.00
[2]; Enterovirus B, HeLa H1, 48 h
  pEC50: 5.00 to 6.00

## CCC1CC(=O)N(Cc2ccccc2)C1C(=O)C(=O)NC1CCOCC1 (stereo not shown) [FP 344, 2-(1-Benzyl-3-ethyl-5-oxopyrrolidin-2-yl)-N-(oxan-4-yl)-2-oxoacetamide]
[1]
  pIC50: > 6.00
[2]; Enterovirus B, HeLa H1, 48 h
  pEC50: > 6.00

## Cc1ccc(CN2C(=O)CCC2C(=O)C(=O)NC2CC2)cc1 (stereo not shown) [FP 270, N-Cyclopropyl-2-{1-[(4-methylphenyl)methyl]-5-oxopyrrolidin-2-yl}-2-oxoacetamide]
[1]
  pIC50: > 6.00
[2]; Enterovirus B, HeLa H1, 48 h
  pEC50: > 6.00

## COc1cc(F)ccc1N(C=O)C(C)C(=O)C(=O)NCc1cccc(Cl)c1 (stereo not shown) [FP 8, N-[(3-Chlorophenyl)methyl]-3-[N-(4-fluoro-2-methoxyphenyl)formamido]-2-oxobutanamide]
[1]
  pIC50: > 6.00
[2]; Enterovirus B, HeLa H1, 48 h
  pEC50: > 6.00

## O=C(NC12CC(C1)C2)C(=O)[C@H]1CCC(=O)N1Cc1ccccc1 [FP 291, 2-[(2R)-1-Benzyl-5-oxopyrrolidin-2-yl]-N-{bicyclo[1.1.1]pentan-1-yl}-2-oxoacetamide]
[1]
  pIC50: > 6.00
[2]; Enterovirus B, HeLa H1, 48 h
  pEC50: > 6.00

## Cc1ccccc1CN1C(=O)CCC1C(=O)C(=O)NC1CC1 (stereo not shown) [FP 261, N-Cyclopropyl-2-{1-[(2-methylphenyl)methyl]-5-oxopyrrolidin-2-yl}-2-oxoacetamide]
[1]
  pIC50: > 6.00
[2]; Enterovirus B, HeLa H1, 48 h
  pEC50: 5.00 to 6.00

## CC(C)OCCCNC(=O)C(=O)[C@H]1CCC(=O)N1Cc1ccccc1 [FP 301, 2-[(2R)-1-Benzyl-5-oxopyrrolidin-2-yl]-2-oxo-N-[3-(propan-2-yloxy)propyl]acetamide]
[1]
  pIC50: > 6.00
[2]; Enterovirus B, HeLa H1, 48 h
  pEC50: > 6.00

## COc1ccccc1N(C=O)C(C)C(=O)C(=O)N[C@@H](C)C(C)C (stereo partly drawn) [FP 108, 3-[N-(2-Methoxyphenyl)formamido]-N-[(2S)-3-methylbutan-2-yl]-2-oxobutanamide]
[1]
  pIC50: > 6.00
[2]; Enterovirus B, HeLa H1, 48 h
  pEC50: > 6.00

## CC(NS(=O)(=O)c1ccccc1Cl)C(=O)C(=O)NCC1CC1 (stereo not shown) [FP 191, 3-(2-Chlorobenzenesulfonamido)-N-(cyclopropylmethyl)-2-oxobutanamide]
[1]
  pIC50: > 6.00
[2]; Enterovirus B, HeLa H1, 48 h
  pEC50: 5.00 to 6.00

## COc1ccccc1N(C=O)C(C)C(=O)C(=O)N[C@H](C)C(C)C (stereo partly drawn) [FP 107, 3-[N-(2-Methoxyphenyl)formamido]-N-[(2R)-3-methylbutan-2-yl]-2-oxobutanamide]
[1]
  pIC50: > 6.00
[2]; Enterovirus B, HeLa H1, 48 h
  pEC50: 5.00 to 6.00

## CCCC(NC(=O)CN1CCN(C)CC1)C(=O)C(=O)NCC1CCCCC1 (stereo not shown) [FP 214, N-(Cyclohexylmethyl)-3-[2-(4-methylpiperazin-1-yl)acetamido]-2-oxohexanamide]
[1]
  pIC50: 5.00 to 6.00
[2]; Enterovirus B, HeLa H1, 48 h
  pEC50: < 5.00

## Cc1ccc(C(=O)NC(C)C(=O)C(=O)NCC2CC2)cc1 (stereo not shown) [FP 159, N-(Cyclopropylmethyl)-3-[(4-methylphenyl)formamido]-2-oxobutanamide]
[1]
  pIC50: > 6.00
[2]; Enterovirus B, HeLa H1, 48 h
  pEC50: < 5.00

## CCCC(NC(=O)c1ccccc1)C(=O)C(=O)NC1CC1 (stereo not shown) [FP 184, N-Cyclopropyl-2-oxo-3-(phenylformamido)hexanamide]
[1]
  pIC50: > 6.00
[2]; Enterovirus B, HeLa H1, 48 h
  pEC50: < 5.00

## COC(=O)N(CC1CCOCC1)C(C)C(=O)C(=O)NCC(C)C (stereo not shown) [FP 152, Methyl N-{1-[(2-methylpropyl)carbamoyl]-1-oxopropan-2-yl}-N-[(oxan-4-yl)methyl]carbamate]
[1]
  pIC50: 5.00 to 6.00
[2]; Enterovirus B, HeLa H1, 48 h
  pEC50: < 5.00

## CC(C(=O)C(=O)NCC1CCCCC1)N(C=O)CC1CC1 (stereo not shown) [FP 51, N-(Cyclohexylmethyl)-3-[N-(cyclopropylmethyl)formamido]-2-oxobutanamide]
[1]
  pIC50: > 6.00
[2]; Enterovirus B, HeLa H1, 48 h
  pEC50: 5.00 to 6.00

## O=C(NC1CC1)C(=O)C1CCC(=O)N1CC1CCCC1 (stereo not shown) [FP 279, 2-[1-(Cyclopentylmethyl)-5-oxopyrrolidin-2-yl]-N-cyclopropyl-2-oxoacetamide]
[1]
  pIC50: > 6.00
[2]; Enterovirus B, HeLa H1, 48 h
  pEC50: 5.00 to 6.00

## CC(=O)NCCCCCCCNC(=O)C(=O)C1CCC(=O)N1Cc1ccccc1 (stereo not shown) [FP 326, 2-(1-Benzyl-5-oxopyrrolidin-2-yl)-N-(7-acetamidoheptyl)-2-oxoacetamide]
[1]
  pIC50: > 6.00
[2]; Enterovirus B, HeLa H1, 48 h
  pEC50: 5.00 to 6.00
